Data: patent publication US9371319B2, “Pyrrolopyridineamino derivatives as MPS1 inhibitors” (priority 2011, dated 2016)
pIC50: −log10 of the molar value.

Each compound was assayed against T1, full length MPS1 (Homo sapiens, UniProt P33981) (assay: biochemical).
T1 sequence (P33981 1-857): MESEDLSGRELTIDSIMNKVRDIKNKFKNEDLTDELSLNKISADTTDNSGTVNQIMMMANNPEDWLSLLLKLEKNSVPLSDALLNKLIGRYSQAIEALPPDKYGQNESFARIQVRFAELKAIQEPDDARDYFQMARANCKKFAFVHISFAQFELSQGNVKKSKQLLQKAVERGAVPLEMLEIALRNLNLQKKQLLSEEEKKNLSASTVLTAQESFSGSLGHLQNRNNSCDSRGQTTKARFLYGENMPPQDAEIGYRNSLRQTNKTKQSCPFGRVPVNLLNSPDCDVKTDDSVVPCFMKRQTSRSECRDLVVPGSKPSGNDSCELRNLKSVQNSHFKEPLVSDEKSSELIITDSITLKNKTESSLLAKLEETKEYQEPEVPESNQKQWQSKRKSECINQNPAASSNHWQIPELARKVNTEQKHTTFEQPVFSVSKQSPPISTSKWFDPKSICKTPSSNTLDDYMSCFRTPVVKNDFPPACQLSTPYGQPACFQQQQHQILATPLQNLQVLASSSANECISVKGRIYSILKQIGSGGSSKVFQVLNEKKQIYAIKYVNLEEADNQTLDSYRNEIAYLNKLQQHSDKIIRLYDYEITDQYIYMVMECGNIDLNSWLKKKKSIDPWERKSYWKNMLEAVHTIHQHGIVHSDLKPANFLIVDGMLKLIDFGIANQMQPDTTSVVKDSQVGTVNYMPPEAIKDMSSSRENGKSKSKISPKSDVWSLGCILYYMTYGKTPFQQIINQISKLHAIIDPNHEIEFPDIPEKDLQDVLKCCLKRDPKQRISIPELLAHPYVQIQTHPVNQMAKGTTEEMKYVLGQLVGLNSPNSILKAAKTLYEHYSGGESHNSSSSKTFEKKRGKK
For `Cn1cc(-c2cc3cnc(Nc4ccc(-n5cncn5)cc4Cl)cc3[nH]2)cn1` [Example 129, N-(2-Chloro-4-(1H-1,2,4-triazol-1-yl)phenyl)-2-(1-methyl-1H-pyrazol-4-yl)-1H-pyrrolo[3,2-c]pyridin-6-amine], the pIC50 was 7.26.
`COc1cc(C(=O)NC2CCN(C)CC2)ccc1Nc1cc2[nH]c(-c3cnn(C)c3)cc2cn1` [Example 111, 3-Methoxy-4-((2-(1-methyl-1H-pyrazol-4-yl)-1H-pyrrolo[3,2-c]pyridin-6-yl)amino)-N-(1-methylpiperidin-4-yl)benzamide] was tested, and the pIC50 was 7.38.
In the case of `CCOC(=O)n1c(-c2cnn(C)c2)cc2cnc(Nc3ccc(-c4cnc(C)n4C)cc3Cl)cc21` [Example 87], the pIC50 was 8.70.
`CN1CCN(C(=O)c2ccc(Nc3cc4c(cn3)cc(-c3cnn(C)c3)n4C(=O)OC(C)(C)C)c(Cl)c2)CC1` [Example 41] gave a pIC50 of 8.10.
`Cn1cc(-c2cc3cnc(Nc4ccc(F)cc4Cl)cc3[nH]2)cn1` [Example 130, N-(2-Chloro-4-fluorophenyl)-2-(1-methyl-1H-pyrazol-4-yl)-1H-pyrrolo[3,2-c]pyridin-6-amine] was tested, and the pIC50 was 6.29.
`Cn1cc(-c2cc3cnc(Nc4cccc(OCC#N)c4)cc3[nH]2)cn1` [Example 141, 2-(3-(2-(1-Methyl-1H-pyrazol-4-yl)-1H-pyrrolo[3,2-c]pyridin-6-ylamino)phenoxy)acetonitrile] showed a pIC50 of 6.88.
Compound `COc1cc(CN2CCCC2)ccc1Nc1cc2c(cn1)cc(-c1cnn(C)c1)n2C(=O)OC(C)(C)C` [Example 33] has a pIC50 of 7.80.
Work on `CN(C)C(=O)c1cc(Cl)c(Nc2cc3c(cn2)cc(-c2cnn(C)c2)n3C(=O)OC(C)(C)C)c(Cl)c1` [Example 13] yielded a pIC50 of 7.70.
`FC(F)(F)c1ccc(Nc2cc3[nH]c(-c4cn[nH]c4)cc3cn2)cc1` [Example 161, 2-(1H-Pyrazol-4-yl)-N-(4-(trifluoromethyl)phenyl)-1H-pyrrolo[3,2-c]pyridin-6-amine] was tested, and the pIC50 was 5.97.
Compound `Cn1cc(-c2cc3cnc(Nc4ccc(C(=O)N5CCCC5)cc4Cl)cc3n2C(=O)OC(C)(C)C)cn1` [Example 40] has a pIC50 of 8.40.
With `Cn1cc(-c2cc3cnc(Nc4ccc(-c5cncn5C)cc4Cl)cc3n2C(=O)OC2CCCC2)cn1` [Example 78] the pIC50 was 7.96.
Compound `CN(C)C(=O)c1ccc(Nc2cc3c(cn2)cc(-c2cnn(C)c2)n3C(=O)OC2CCCC2)c(Cl)c1` [Example 72] has a pIC50 of 8.52.
With `COc1cc(C(=O)N2CCOCC2)ccc1Nc1cc2c(cn1)cc(-c1cnn(C)c1)n2C(=O)OC(C)(C)C` [Example 10] the pIC50 was 8.30.
In the case of `Cn1cc(-c2cc3cnc(Nc4ccccc4C#N)cc3n2C(=O)OC(C)(C)C)cn1` [Example 54], the pIC50 was 7.49.
Compound `COc1ccc(Nc2cc3[nH]c(-c4cnn(C)c4)cc3cn2)c(F)c1` [Example 155, N-(2-Fluoro-4-methoxyphenyl)-2-(1-methyl-1H-pyrazol-4-yl)-1H-pyrrolo[3,2-c]pyridin-6-amine] has a pIC50 of 7.28.
With `Cn1cc(-c2cc3cnc(Nc4ccc(OC(F)F)cc4Cl)cc3[nH]2)cn1` [Example 132, N-(2-Chloro-4-(difluoromethoxy)phenyl)-2-(1-methyl-1H-pyrazol-4-yl)-1H-pyrrolo[3,2-c]pyridin-6-amine] the pIC50 was 6.54.
`c1cc(Nc2cc3[nH]c(-c4cn[nH]c4)cc3cn2)ccc1CN1CCOCC1` [Example 171, N-(4-(Morpholinomethyl)phenyl)-2-(1H-pyrazol-4-yl)-1H-pyrrolo[3,2-c]pyridin-6-amine] showed a pIC50 of 8.05.
`CC(C)OC(=O)n1c(-c2cnn(C)c2)cc2cnc(Nc3ccc(-c4cncn4C)cc3Cl)cc21` [Example 79] gave a pIC50 of 8.52.
For `COc1ccc(Nc2cc3[nH]c(-c4cnn(CC(=O)N(C)C)c4)cc3cn2)c(OC)c1` [Example 135, 2-(4-(6-(2,4-Dimethoxyphenylamino)-1H-pyrrolo[3,2-c]pyridin-2-yl)-1H-pyrazol-1-yl)-N,N-dimethylacetamide], the pIC50 was 6.09.
With `CN(C)C(=O)c1ccc(Nc2cc3c(cn2)cc(-c2cnn(C)c2)n3-c2ccccn2)c(Cl)c1` [Example 94] the pIC50 was 7.11.
Work on `Cc1ncc(-c2ccc(Nc3cc4[nH]c(-c5cnco5)cc4cn3)c(Cl)c2)n1C` [Example 186, N-(2-Chloro-4-(1,2-dimethyl-1H-imidazol-5-yl)phenyl)-2-(oxazol-5-yl)-1H-pyrrolo[3,2-c]pyridin-6-amine] yielded a pIC50 of 9.00.
Compound `Cn1cc(-c2cc3cnc(Nc4ccccc4Cl)cc3n2CC2CCCCC2)cn1` [Example 67] has a pIC50 of 5.31.
With `Cc1ncc(-c2ccc(Nc3cc4c(cn3)cc(-c3cnn(C)c3)n4C(=O)OC(C)C)c(Cl)c2)n1C` [Example 83] the pIC50 was 8.70.
